Laboratory results reported in patent publication US20260097036A1 (Kadmon Corporation, LLC, priority 2022, published 2026).
“And” between values parts separate entries of the source, which are not always exact repeats. Equal values may be shown once. Read-outs that look alike come from different tables or passages of the source. One block for each compound: values may come before it.

How the values were obtained:
[1] = Part 2 relative bioavailability and food effect, plasma PK; format: in vivo, human; settings: for Tlag / Tmax / AUC (0-24) / AUC (0-last) / Cmax / Lambda-z / T1/2 / median Tmax / AUC % extrap / half-life / AUC(0-inf) / AUC(0-t): plasma; for peak (Cmax) and total exposure (AUC), liquid formulation vs tablet: both in the fed state, GMR comparison; for food effect on exposure, fed vs fasted: oral liquid formulation
Method: Subjects underwent preliminary screening procedures to determine their eligibility for Part 2 of the study at the screening visit (Day −28 to Day −2 of Part 2). Subjects who took part in Part 1 of the study were permitted to take part in Part 2.
Three different regimens (G, H, and I), were used over the three periods. In Regimen G, belumosudil was administered in Tablet form (reference); and in Regimens H and I, belumosudil was administered in the form of Oral Liquid Formulation.
In Period 1, Day 1: subjects were randomized prior to administration of the first dose of IMP to 1 of 6 treatment sequences (GHI, HIG, IGH, IHG, GIH and HGI) with 3 subjects assigned to each treatment sequence. On Day 1 of each study period (periods 1, 2 and 3), subjects received the regimens in Table 36:
Regimen H was administered to subjects as a flavorless low sucralose liquid formulation in a fasted state, and Regimens G and I were administered to subjects in a fed state. Regimen G was administered with a total of 240 mL of water. For Regimens H and I, immediately after IMP administration, subjects consumed water to a total volume of 240 mL (including the dosing volume).
Subjects received a single dose of IMP in the morning of Day 1 following an overnight fast of a minimum of 10 h (Regimen H, fasted state) or following a standard breakfast (Regimens G and I, fed state). Blood samples were collected at regular intervals for PK analysis. Following administration of Regimen H, subjects completed a written taste/palatability questionnaire individually and privately.
Subjects were resident in the clinical unit for 10 consecutive nights that covered all 3 treatment periods. All subjects remained on site until 72 h post-final dose for safety and PK assessments. There was a minimum washout of 3 days between each IMP administration. To ensure the ongoing wellbeing of the subjects, a follow-up phone call took place 3 to 7 days post-final dose. If a subject reported any AEs after discharge which represented a cause for concern, they were required to attend the clinical unit for a follow-up assessment. This would have been an unscheduled visit.

[2] = cited from earlier work
[3] = particle size distribution, Sympatec Helos wet dispersion; format: physicochemical; settings: 40 mg/mL in water, R3 and R5 lens
Method: Samples were assessed using the Sympatec Helos Particle Size Analyzer using the generic method for wet dispersions as outlined below: • R5 Lens and R3 Lens • Sample added until 10-15% Copt achieved • Method run producing 3 replicates (sample stirred and sonicated throughout measurement run)
Samples were assessed using the Sympatec Helos Particle Size Analyzer, with sample added until 10-15% Copt was achieved. Two different lens assemblies were used giving the following ranges for particle size assessment, R3 Lens (0.5-175 μm) and the R5 Lens (4.8-875 μm). Three replicates were performed as part of the measurement run, with the sample stirred and sonicated as part of the method.

[4] = Regimen G: 200 mg Tablet, Fed, single oral dose, healthy male volunteers, median (range)
[5] = Regimen G: 200 mg Tablet, Fed, single oral dose, geometric mean (CV%)
[6] = Regimen G: 200 mg Tablet, Fed, single oral dose, geometric mean (CV%), individual values where n <= 2
[7] = Regimen H: 200 mg Liquid Formulation, Fasted, single oral dose, healthy male volunteers, median (range)
[8] = Regimen H: 200 mg Liquid Formulation, Fasted, single oral dose, geometric mean (CV%)
[9] = Regimen H: 200 mg Liquid Formulation, Fasted, single oral dose, geometric mean (CV%), individual values where n <= 2
[10] = Regimen I: 200 mg Liquid Formulation, Fed, single oral dose, healthy male volunteers, median (range)
[11] = Regimen I: 200 mg Liquid Formulation, Fed, single oral dose, geometric mean (CV%)
[12] = Regimen I: 200 mg Liquid Formulation, Fed, single oral dose, geometric mean (CV%), individual values where n <= 2

Tlag [1, 4]: 1.00 h | Tmax [1, 4]: 2.00 h | AUC (0-24) [1, 5]: 45.3 (63.9%) [n = 15] ng · h/mL | AUC (0-last) [1, 5]: 42.7 (50.7%) [n = 15] ng · h/mL | Cmax [1, 5]: 22.3 ng/mL | Lambda-z [1, 6]: 0.24 h⁻¹ and 0.38 h⁻¹ | T1/2 [1, 6]: 1.81 h and 2.88 h | Tlag [1, 7]: 0.00 (0.00-1.00) [n = 17] h | Tmax [1, 7]: 1.00 (0.500-1.50) [n = 17] h | AUC (0-24) [1, 8]: 34.9 (104.8%) [n = 12] ng · h/mL | AUC (0-last) [1, 8]: 30.3 (70.9%) [n = 12] ng · h/mL | Cmax [1, 8]: 19.0 (41.7%) [n = 17] ng/mL | Lambda-z [1, 9]: 0.26 h⁻¹ and 0.3 h⁻¹ | T1/2 [1, 9]: 2.28 h and 2.67 h | Tlag [1, 10]: 0.500 (0.00-1.00) [n = 17] h | Tmax [1, 10]: 1.50 (0.500-3.00) [n = 17] h | AUC (0-24) [1, 11]: 49.4 (83.1%) [n = 17] ng · h/mL | AUC (0-last) [1, 11]: 37.9 (53.2%) [n = 17] ng · h/mL | Cmax [1, 11]: 19.4 (27.6%) [n = 17] ng/mL | Lambda-z [1, 12]: 0.326 [n = 1] l/h | T1/2 [1, 12]: 2.128 [n = 1] h | food effect on exposure, fed vs fasted [1]: moderate increases in total exposure | median Tmax ([1]; single oral 200 mg as liquid formulation (fed)): 1.5 h | median Tmax ([1]; single oral 200 mg as tablet reference, fed, listed as KD025 ml): 2.00 h and 2 h
SMILES: NC(=O)COc1cccc(-c2nc(Nc3ccc4[nH]ncc4c3)c3ccccc3n2)c1 [KD025m1]
peak (Cmax) and total exposure (AUC), liquid formulation vs tablet ([1]; listed as KD025 ml): largely similar to that of the tablet reference

PSD of wet dispersion in sterile water for irrigation [3]: reproducibility between replicates
SMILES: CC(C)NC(=O)COc1cccc(-c2nc(Nc3ccc4[nH]ncc4c3)c3ccccc3n2)c1 [pin-milled API]

Further lines, the compound ahead of its results:

SMILES: O=C([O-])c1ccccc1.[Na+] [Sodium Benzoate]
ADI ([2]; JECFA (1996)): 2-5. The JECFA (1996) has set an ADI of up to 5 mg/kg body- mg/kg body-weight

SMILES: O=C(O)COc1cccc(-c2nc(Nc3ccc4[nH]ncc4c3)c3ccccc3n2)c1 [KD025m2, 2-(3-(4-(1H-indazol-5-ylamino)quinazolin-2-yl)phenoxy) acetic acid]
Tlag [1, 4]: 1.00 h | AUC % extrap [1, 5]: 5.607 (49.8%) [n = 8] | Lambda-z [1, 5]: 0.281 (43.1%) [n = 8] 1/h | Tlag [1, 7]: 0.00 h | AUC % extrap [1, 8]: 4.453 (60.7%) [n = 10] | Lambda-z [1, 8]: 0.277 (87.4%) [n = 10] 1/h | Tlag [1, 10]: 0.00 h | AUC % extrap [1, 11]: 5.388 (43.1%) [n = 10] | Lambda-z [1, 11]: 0.273 (56.5%) [n = 10] 1/h | peak (Cmax) and total exposure (AUC), liquid formulation vs tablet [1]: similar | half-life ([1]; male, human, oral, 200 mg, tablet reference 200 mg, fed, read-out: geometric mean T1/2 (converted)): 2.47 h | Tmax ([1]; male, human, po, 200 mg, Regimen G: 200 mg Tablet, Fed, single oral dose, healthy male volunteers, median (range), read-out: Tmax): 3 h | AUC(0-inf) ([1]; male, human, po, 200 mg, Regimen G: 200 mg Tablet, Fed, single oral dose, geometric mean (CV%)): 1180 ng·h/mL | half-life ([1]; male, human, po, 200 mg, Regimen G: 200 mg Tablet, Fed, single oral dose, geometric mean (CV%), individual values where n <= 2, read-out: T1/2 (converted)): 2.47 h | AUC(0-t) ([1]; male, human, po, 200 mg, Regimen G: 200 mg Tablet, Fed, single oral dose, geometric mean (CV%), read-out: AUC (0-24)): 1280 ng·h/mL | AUC(0-t) ([1]; male, human, po, 200 mg, Regimen G: 200 mg Tablet, Fed, single oral dose, geometric mean (CV%), read-out: AUC (0-last)): 1200 ng·h/mL | Cmax ([1]; male, human, po, 200 mg, Regimen G: 200 mg Tablet, Fed, single oral dose, geometric mean (CV%), read-out: Cmax): 406 ng/mL | Tmax ([1]; male, human, po, 200 mg, Regimen H: 200 mg Liquid Formulation, Fasted, single oral dose, healthy male volunteers, median (range), read-out: Tmax): 1.5 h | AUC(0-inf) ([1]; male, human, po, 200 mg, Regimen H: 200 mg Liquid Formulation, Fasted, single oral dose, geometric mean (CV%)): 1030 ng·h/mL | half-life ([1]; male, human, po, 200 mg, Regimen H: 200 mg Liquid Formulation, Fasted, single oral dose, geometric mean (CV%), individual values where n <= 2, read-out: T1/2 (converted)): 2.51 h | AUC(0-t) ([1]; male, human, po, 200 mg, Regimen H: 200 mg Liquid Formulation, Fasted, single oral dose, geometric mean (CV%), read-out: AUC (0-24)): 1130 ng·h/mL | AUC(0-t) ([1]; male, human, po, 200 mg, Regimen H: 200 mg Liquid Formulation, Fasted, single oral dose, geometric mean (CV%), read-out: AUC (0-last)): 1080 ng·h/mL | Cmax ([1]; male, human, po, 200 mg, Regimen H: 200 mg Liquid Formulation, Fasted, single oral dose, geometric mean (CV%), read-out: Cmax): 372 ng/mL | Tmax ([1]; male, human, po, 200 mg, Regimen I: 200 mg Liquid Formulation, Fed, single oral dose, healthy male volunteers, median (range), read-out: Tmax): 2 h | AUC(0-inf) ([1]; male, human, po, 200 mg, Regimen I: 200 mg Liquid Formulation, Fed, single oral dose, geometric mean (CV%)): 926 ng·h/mL | half-life ([1]; male, human, po, 200 mg, Regimen I: 200 mg Liquid Formulation, Fed, single oral dose, geometric mean (CV%), individual values where n <= 2, read-out: T1/2 (converted)): 2.54 h | AUC(0-t) ([1]; male, human, po, 200 mg, Regimen I: 200 mg Liquid Formulation, Fed, single oral dose, geometric mean (CV%), read-out: AUC (0-24)): 1180 ng·h/mL | AUC(0-t) ([1]; male, human, po, 200 mg, Regimen I: 200 mg Liquid Formulation, Fed, single oral dose, geometric mean (CV%), read-out: AUC (0-last)): 1120 ng·h/mL | Cmax ([1]; male, human, po, 200 mg, Regimen I: 200 mg Liquid Formulation, Fed, single oral dose, geometric mean (CV%), read-out: Cmax): 319 ng/mL | Tmax ([1]; male, human, po, 200 mg, single oral 200 mg as liquid formulation (fed), read-out: median Tmax): 2 h | Tmax ([1]; male, human, po, 200 mg, single oral 200 mg as tablet reference, fed, read-out: median Tmax): 3 h | food effect on exposure, fed vs fasted [1]: No notable changes

SMILES: CC(C)NC(=O)COc1cccc(-c2nc(Nc3ccc4[nH]ncc4c3)c3ccccc3n2)c1 [jet-milled belumosudil]
PSD of wet dispersion in sterile water for irrigation [3]: poor results with readings that were inconsistent between the measurement runs

SMILES: OC[C@H]1O[C@H](O[C@]2(CCl)O[C@H](CCl)[C@@H](O)[C@@H]2O)[C@H](O)[C@@H](O)[C@H]1Cl [Sucralose]
ADI ([2]; set in 2000): An ADI of up to 15 mg/kg body weight was set in 2000. In
